Data as given in patent US10653138B2, “Composition for attracting bed bugs” (London School of Hygiene & Tropical Medicine, priority 2015, dated 2020).

Tests used:
[1] = test system: bed bugs; experiment: Behavioural bioassay, refined synthetic blends (Example 9); assay type: in vivo, Cimex lectularius
Description: The behavioural bioassay was as described by Weeks et al. 2011 and recorded using EthoVision and the methodology described by Weeks et al. 2013. Each replicate was completed as a block of 10 treatments including: • 1. Bed bug-exposed paper (positive control) • 2. Ether (negative control) • 3. Nonanal 80× • 4. E-2-octenal 800× • 5. Nonanal 80× and E-2-octenal 80× (80-80) • 6. Nonanal 80× and E-2-octenal 800× (80-800) • 7. Nonanal 80× and E-2-octenal 8000× (80-8000) • 8. Nonanal 8× and E-2-octenal 800× (8-800) • 9. Nonanal 8× and E-2-octenal 8000× (8-8000) • 10. Nonanal 80×, E-2-octenal 80× and 1-octen-3-ol 80× (80-80-80)
We are referring here to either 1×, 10×, 100× or 1000× the dose of Nonanal or (E)-2-octenal found naturally in the aggregation pheromone. For instance, an “8% solution” refers to an 8% dose of volatile extract (with the various different ratios of individual component).
Therefore, 8× means that it is 1 of standard volatiles, 8×=1× standard, 80×=10× standard and 800×=100× standard. 8000×=1000× standard.
In each block the order of the treatments and the position of the odour pot were randomized. 18 blocks were completed.

[2] = test system: bed bug antennae; experiment: Coupled gas chromatography-electroantennography (GC-EAG) of volatile extract from bed bug-exposed paper; parameters: species or system Cimex lectularius; settings: for Electrophysiology Auto method: bullet = marked under the Auto method; for Responses Total: males plus females, 20 insects tested; for Responses Females: number of females giving an EAG response to the peak; for Responses Females / Responses Males: volatile extract 1 μL; for Responses Males: number of males giving an EAG response to the peak; for electroantennogram (EAG) response: result in words; for Visual inspection (no of responses) >5 / Visual inspection (no of responses) >10 / Visual inspection (no of responses) >15: threshold of individuals responding; for Visual inspection (no of responses) Response: total EAG responses, Table 8
Description: Experimental insects, unless otherwise stated, were mated males and females of C. lectularius that had been fed 7 to 14 days previously on heparinised sheep blood. The electrodes used to make recordings were Ag/AgCl wires (diameter 0.37 mm) inserted into glass pipettes, made from borosilicate glass capillaries (outer diameter 2.0 mm; inner diameter 1.16 mm). The glass pipettes were filled with Ringers solution (7.55 g NaCl, 0.64 g KCl, 0.22 g CaCl2, 1.73 g MgCl2 g, 0.86 g NaHCO3 and 0.61 g Na3PO4 L^−1 water). The bed bug was then chilled on ice for one minute before dissection. Preparations were held in a continuous, humidified, charcoal filtered air flow ([…]) coming from a glass tube, which was positioned 5 mm from the antennal preparation. Once the antennal preparation and EAG equipment were in position the microscope light was switched off.
The GC used was a HP-680N, containing a HP-1 column (30 m×0.32 mm; film thickness, 0.52 μm) with a COC injector, hydrogen carrier gas and a FID. The oven temperature was maintained at 40° C. for two min and then programmed at 5° C. min^−1 to 100° C. and then at 10° C. […] to 250° C. The end of the column was inserted into the centre of the main air flow so that the eluent went over the antennal preparation. […] Amplification of the signals was set at ×10,000. Signals were analysed using the computer-based software package, EAD 2000 (Syntech®, The Netherlands). The volatile extract (1 μL) from an air entrainment of bed bug-exposed papers (see Example 1) was injected onto the column. A solution of n-alkanes (C7-C25, 1 μL of 100 ng μL^−1) in hexane was also analysed to calculate the retention indices (RI) of any EAG-active peaks for comparison with GC and coupled GC-MS traces (Equation 1).
Electroantennographic (EAG) responses from the coupled gas chromatography-electroantennographic (GC-EAG) analysis of the volatile extract collected using air entrainment were determined by visual appearance. Coupled GC-EAG traces were examined visually on a light box to identify EAG responses and match them to peaks on the GC traces. A combination of characteristics including the amplitude and shape of the deflection from the baseline were used to identify EAG responses. For example, an EAG response is usually of greater amplitude than the background noise and it has a characteristic negative deflection followed by a quick positive deflection resulting in a short sharp response often of similar shape and position as the corresponding peak on the GC trace. Responses were matched between males and females separately onto master traces for each sex. The EAG-active peaks were labelled from 1 to 21. Male and female master traces were then overlaid to identify where consistent responses occurred in both sexes. Five or more individuals responding at the same retention time on the GC trace was considered to be a consistent EAG response and the corresponding peak on the GC trace was considered to be EAG-active. Three thresholds were used: greater than 5, greater than 10 or greater than 15 individuals responding to the same GC peak or at the same retention time. The traces were then subjected to manual or automated statistical analysis.

[3] = test system: bed bugs; experiment: Behavioural bioassay, dose responses of individual chemicals (Example 8); assay type: in vivo, Cimex lectularius; settings: for dose response: 0.008× to 8000×; for doses on which further synthetic blends should focus: × relative to 8% natural standard (8×=1× standard)
Procedure: Methods: The behavioural bioassay was as described by Weeks et al. 2011 and recorded using EthoVision and the methodology described by Weeks et al. 2013. For each chemical, (E)-2-octenal, (RS)-1-octen-3-ol and nonanal, seven doses were tested from 0.008× to 8000×, along with three controls. Each replicate was completed as a block of 10 treatments including: We are referring here to either 0.001×, 0.01×, 0.1×, 1×, 10×, 100× or 1000× the dose of (E)-2-octenal found naturally in the aggregation pheromone. For instance, an “8% solution” refers to an 8% dose of volatile extract (with the various different ratios of individual component). In each block the order of the treatments and the position of the odour pot were randomized. 10 blocks were completed for each chemical (n=10).

[4] = test system: bed bugs; settings: volatile components of aggregation pheromone; cited from earlier work

CCCCCCCCC=O [Nonanal, nonanal]
zone duration compared to zero ([1]; nonanal 80): significantly greater in time spent above the odour pot in the odour zone | Electrophysiology Auto method [2]: • | Responses Total [2]: 17 | Responses Females [2]: 9 | Responses Males [2]: 8 | electroantennogram (EAG) response [2]: EAG-active | Visual inspection (no of responses) >5 [2]: • (>5) | Visual inspection (no of responses) >10 [2]: • (>10) | Visual inspection (no of responses) >15 [2]: • (>15) | Visual inspection (no of responses) Response [2]: 17 | dose response [3]: clear dose response was observed | doses on which further synthetic blends should focus [3]: 8-80 ×

CCCCC/C=C/C=O (single isomer, unassigned) [(E)-2-octenal]
time spent over the odour pot compared with blends ([1]; (E)-2-octenal 800 treatment): significantly lower in time spent over the odour pot than 80-800 and 8-800 | Electrophysiology Auto method [2]: • | Responses Total [2]: 16 | Responses Females [2]: 8 | Responses Males [2]: 8 | electroantennogram (EAG) response [2]: EAG-active | Visual inspection (no of responses) >5 [2]: • (>5) | Visual inspection (no of responses) >10 [2]: • (>10) | Visual inspection (no of responses) >15 [2]: • (>15) | Visual inspection (no of responses) Response [2]: 16 | dose response [3]: clear dose response was observed | doses on which further synthetic blends should focus [3]: 800-8000 × | attraction of bed bugs to safe shelters [4]: attract bed bugs to safe shelters

C=CC(O)CCCCC (racemic) [(RS)-1-Octen-3-ol, (RS)-1-octen-3-ol]
Responses Total [2]: 11 | Responses Females [2]: 7 | Responses Males [2]: 4 | electroantennogram (EAG) response [2]: EAG-active | Visual inspection (no of responses) >5 [2]: • (>5) | Visual inspection (no of responses) >10 [2]: • (>10) | Visual inspection (no of responses) Response [2]: 11 | time spent above the odour pot compared to zero ([3]; all doses 0.008× to 8000×): none of the (RS)-1-octen-3-ol doses resulted in significantly more

CCCCC(C)=O [2-hexanone]
attraction of bed bugs to safe shelters [4]: attract bed bugs to safe shelters
